# Test results: article PMC11220827 (Frontiers in Pharmacology, 2024)
# Like-named read-outs stand apart in the source and are kept apart here.
# Key:
# HepG2 cells [1] = assay: cells; type: cell-based; conditions: for AC50: Homo sapiens, HepG2, 24 h
# MAO-A = target: T1, MAO-A (Rattus norvegicus, UniProt P21396); assay: Pharmacology profiling: MAO-A (antagonist RL); type: binding; conditions: read-out: MAO-A (antagonist RL): % inhibition @10 µM
# T1 sequence (P21396 1-526): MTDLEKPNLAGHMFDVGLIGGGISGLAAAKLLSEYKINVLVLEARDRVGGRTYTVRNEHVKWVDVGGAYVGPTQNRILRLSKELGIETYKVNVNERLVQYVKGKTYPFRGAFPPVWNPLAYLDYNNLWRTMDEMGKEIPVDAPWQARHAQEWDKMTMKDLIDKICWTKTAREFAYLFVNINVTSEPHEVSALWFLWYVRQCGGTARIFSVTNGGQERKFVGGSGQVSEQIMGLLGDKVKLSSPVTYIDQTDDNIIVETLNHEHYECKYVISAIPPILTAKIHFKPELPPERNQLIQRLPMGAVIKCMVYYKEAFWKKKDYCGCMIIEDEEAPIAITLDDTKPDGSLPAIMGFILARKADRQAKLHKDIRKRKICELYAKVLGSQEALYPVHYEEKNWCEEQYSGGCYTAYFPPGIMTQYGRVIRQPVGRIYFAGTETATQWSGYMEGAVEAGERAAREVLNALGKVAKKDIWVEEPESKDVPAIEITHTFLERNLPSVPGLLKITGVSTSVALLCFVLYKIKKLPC
# From the text: (§1) targets. The list of targets included the original panel of 44 targets (including receptors, ion channels,
# (§2) transporters and enzymes) recommended by 4 major pharmaceutical companies as significant
# (§3) reasoned to link to pathological effects. Results showing an inhibition or stimulation higher than 50%
# (§4) are considered to represent significant effects (i.e. a “hit”).
# (§5) and 50% are indicative of weak to moderate effects and results showing an inhibition (or stimulation)
# (§6) around the control level. For several targets, additional concentration effect assays were conducted to
# (§7) determine the potency (IC50). The concentrations tested (in duplicate) ranged between 30 nM and 100
# 5-HT2B (h) = 5-HT2B (h) (Homo sapiens, UniProt P41595); assay: Pharmacology profiling: 5-HT2B (h) (agonist RL); type: binding
# Chain of 5-HT2B (h) (P41595 whole entry): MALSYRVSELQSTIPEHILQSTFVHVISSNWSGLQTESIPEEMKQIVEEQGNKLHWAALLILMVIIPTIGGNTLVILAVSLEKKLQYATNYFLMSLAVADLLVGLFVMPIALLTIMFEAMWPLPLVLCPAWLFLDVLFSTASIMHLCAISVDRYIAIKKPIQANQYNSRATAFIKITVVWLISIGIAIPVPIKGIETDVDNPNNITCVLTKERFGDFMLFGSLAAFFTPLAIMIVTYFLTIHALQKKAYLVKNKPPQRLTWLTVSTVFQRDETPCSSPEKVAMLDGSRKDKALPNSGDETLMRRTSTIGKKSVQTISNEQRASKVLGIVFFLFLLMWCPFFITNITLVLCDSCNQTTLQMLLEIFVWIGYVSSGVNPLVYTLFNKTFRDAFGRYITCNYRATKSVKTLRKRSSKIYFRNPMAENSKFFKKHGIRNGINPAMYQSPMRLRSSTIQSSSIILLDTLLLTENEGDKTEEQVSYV
# From the text: Cosmetics Europe’s Systemic Toxicity Taskforce (SysTox-TF) has extended the list of targets in an in vitro screen originally described by [Bowes et al. (2012)] to assess the effects of cosmetic chemicals on target molecules. The approach was based on the knowledge that various targets of pharmacological interest have been linked to human adverse drug reactions, and that screening of these has helped the pharma industry in identifying drug candidates with acceptable human safety profiles ([Bowes et al., 2012]; [Scott et al., 2022]). The methods used by the pharma industry were adapted for use in cosmetic chemical NGRA. A final list of 83 target assays were considered suitable for cosmetic chemical safety testing (see Supplementary Materials S1.7). The targets were receptors, ion channels, transporters and enzymes identified by the pharma industry as linked to human adverse drug reactions, supplemented by additional targets that have been reasoned to be linked to systemic toxicities of chemicals in animals. Chemicals that are flagged for a target are tested in follow-up dose-response assays to establish potency of the interaction. […]. [Valentin et al., 2018]; [Dodson et al., 2021]). […].
# assay’s reference compound was set to 100%. For antagonist assays, the basal signal (exposure to fixed concentration of agonist only) was set to 100%. Activity of the samples was scaled accordingly, […]
# Using these graphs, lowest […]
# compound activity for antagonist assays.
# S1.7. Pharmacology profiling assays […]
# reasoned to link to pathological effects. […]
# around the control level. […]
# determine the potency (IC50).
# Supplementary Table S4 Pharmacology profiling assay panel. […]
# Adenosine A1 (h) = target: T2, Adenosine A1 (h) (Homo sapiens, UniProt P30542); assay: Pharmacology profiling: Adenosine A1 (h) (antagonist RL); type: binding
# T2 sequence (P30542 1-326): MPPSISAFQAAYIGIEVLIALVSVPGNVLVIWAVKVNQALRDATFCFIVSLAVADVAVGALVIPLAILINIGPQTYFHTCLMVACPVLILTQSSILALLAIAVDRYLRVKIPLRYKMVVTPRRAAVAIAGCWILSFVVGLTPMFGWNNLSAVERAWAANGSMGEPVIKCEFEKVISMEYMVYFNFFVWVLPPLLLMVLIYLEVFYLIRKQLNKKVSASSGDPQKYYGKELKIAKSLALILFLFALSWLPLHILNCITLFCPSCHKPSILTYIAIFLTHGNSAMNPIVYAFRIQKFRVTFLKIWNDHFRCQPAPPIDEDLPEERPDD
# From the text: as §1, §2, §3, §4, §5, §6, §7
# MCF-7 cells = assay: Transcriptomics (TempO-Seq, BMD analysis) in MCF-7 cells; type: cell-based, human; conditions: MCF-7, 24 h
# Procedure: (§8) These differed with respect to the number of genes passing all filters in each pathway (3 versus 5 genes). […] Therefore, we captured pathways which fulfilled both criteria.
# (§9) HepG2 (human hepatoblastoma) , MCF-7 (human breast adenocarcinoma) cells supplied by
# (§10) Public Health England European Collection of Cell Cultures (ECACC, Salisbury, UK). Differentiated
# (§11) HepaRG cells (HPR116, Lot HPR116239 -TA08) were from Biopredic International (Rennes, France).
# (§12) Test chemicals were prepared in DMSO as serial dilutions, resulting in concentrations in media of
# (§13) biological replicates were treated with the appropriate dose of co mpound for 24 h prior to cell lysis.
# (§14) Biospyder human whole genome panel version 1 (https://biospyder.com).
# Gene normalization and analysis
# (§15) expression values for each probe were normalized by applying DESEQ2 normalization. A pseudo-
# (§16) read-count of 1.0 was added to each normalized expression value, and then the values were log2
# (§17) transformed . Analyses performed included Gene and Pathway, Dose Response and Network
# (§18) monotonic increasing/decreasing trend were those which confirmed to the criteria : William’s trend
# (§19) Those genes were then used in categorical (pathway) analysis for the Gene Ontology (GO) terms and
# (§20) REACTOME pathways. Significant dose responsive pathways were determined according to : Fisher’s
# HepG2 cells [2] = assay: Transcriptomics (TempO-Seq, BMD analysis) in HepG2 cells; type: cell-based, human
# Procedure: as §8, §9, §10, §11, §12, §13, §14
# Gene normalization and analysis
# as §15, §16, §17, §18, §19, §20
# [3] = type: in vitro ADME; conditions: 3 nmol/cm^2 in the body lotion formulation
# From the text: Additional information was required to determine whether an adjustment factor was needed to account for a difference in the absorption of daidzein after topical application and whether the absorption was impacted by the use of the intended (body lotion base) formulation. […]. […] […]. The results of this study are described in detail by [Géniès et al. (2024)] and are summarized here.
# TSHR = test system: TSHR; design: method as in ToxCast; conditions: ref ToxCast; cited from earlier work; also: key: Pos = positive result; Neg = negative result; Inc = uncertain/inconclusive result
# Monooxygenase = test system: Monooxygenase; design: method as in ToxCast; conditions: ref ToxCast, cited from earlier work; as to Thyroid pathway: Monooxygenase (Not AOP), Call: key: Pos = positive result; Neg = negative result; Inc = uncertain/inconclusive result
compound,measurement,setting,value
"O=c1c(-c2ccc(O)cc2)coc2cc(O)cc(O)c12 [Genistein, 5,7-DIHYDROXY-3-(4-HYDROXYPHENYL)-4-BENZOPYRONE]",AhR Translocation: Effect,HepG2 cells [1],increase
same,Apoptosis & necrosis: caspase 3/7: Effect,HepG2 cells [1],increase
same,Apoptosis & necrosis: cell cycle arrest: Effect,HepG2 cells [1],decrease
same,Cellular ATP: Effect,HepG2 cells [1],decrease
same,DNA damage: Phospho-p53: Effect,HepG2 cells [1],increase
same,DNA damage: p-H2AX: Effect,HepG2 cells [1],increase
same,ER stress panel 1: ER integrity: Effect,HepG2 cells [1],increase
same,ER stress panel 1: XBP1: Effect,HepG2 cells [1],increase
same,ER stress panel 2: CHOP: Effect,HepG2 cells [1],increase
same,Inflammation & pH: HIF1α: Effect,HepG2 cells [1],increase
same,Inflammation & pH: ICAM-1: Effect,HepG2 cells [1],increase
same,Inflammation & pH: intracellular pH: Effect,HepG2 cells [1],increase
same,Metal stress: MTF1: Effect,HepG2 cells [1],decrease
same,Mitochondrial mass: Effect,HepG2 cells [1],increase
same,Mitochondrial membrane potential: Effect,HepG2 cells [1],decrease
same,Nuclear size: Effect,HepG2 cells [1],increase
same,Osmotic & heat shock: NFAT: Effect,HepG2 cells [1],increase
same,Oxidative stress: HMOX1: Effect,HepG2 cells [1],increase
same,Oxidative stress: NRF2: Effect,HepG2 cells [1],increase
same,Seahorse assay: Extracellular acidification rate (ECAR): Effect,HepG2 cells [1],decrease
same,Seahorse assay: oxygen consumption rate (OCR): Effect,HepG2 cells [1],decrease
same,Seahorse assay: reserve capacity: Effect,HepG2 cells [1],decrease
same,AC50,HepG2 cells [1]; read-out: AhR Translocation: AC50,> 100 µM
same,AC50,HepG2 cells [1]; read-out: Apoptosis & necrosis: caspase 3/7: AC50,> 100 µM
same,AC50,HepG2 cells [1]; read-out: Apoptosis & necrosis: cell cycle arrest: AC50,> 100 µM
same,AC50,HepG2 cells [1]; read-out: Cellular ATP: AC50,> 100 µM
same,AC50,HepG2 cells [1]; read-out: DNA damage: Phospho-p53: AC50,> 100 µM
same,AC50,HepG2 cells [1]; read-out: DNA damage: p-H2AX: AC50,> 100 µM
same,AC50,HepG2 cells [1]; read-out: ER stress panel 1: ER integrity: AC50,> 100 µM
same,AC50,HepG2 cells [1]; read-out: ER stress panel 1: XBP1: AC50,40.4 µM
same,AC50,HepG2 cells [1]; read-out: ER stress panel 2: CHOP: AC50,> 100 µM
same,AC50,HepG2 cells [1]; read-out: Inflammation & pH: HIF1α: AC50,> 100 µM
same,AC50,HepG2 cells [1]; read-out: Inflammation & pH: ICAM-1: AC50,> 100 µM
same,AC50,HepG2 cells [1]; read-out: Inflammation & pH: intracellular pH: AC50,> 100 µM
same,AC50,HepG2 cells [1]; read-out: Metal stress: MTF1: AC50,> 100 µM
same,AC50,HepG2 cells [1]; read-out: Mitochondrial mass: AC50,> 100 µM
same,AC50,HepG2 cells [1]; read-out: Mitochondrial membrane potential: AC50,69.6 µM
same,AC50,HepG2 cells [1]; read-out: Nuclear size: AC50,> 100 µM
same,AC50,HepG2 cells [1]; read-out: Osmotic & heat shock: NFAT: AC50,> 100 µM
same,AC50,HepG2 cells [1]; read-out: Oxidative stress: HMOX1: AC50,> 100 µM
same,AC50,HepG2 cells [1]; read-out: Oxidative stress: NRF2: AC50,> 100 µM
same,AC50,HepG2 cells [1]; read-out: Seahorse assay: Extracellular acidification rate (ECAR): AC50,> 100 µM
same,AC50,HepG2 cells [1]; read-out: Seahorse assay: oxygen consumption rate (OCR): AC50,> 100 µM
same,AC50,HepG2 cells [1]; read-out: Seahorse assay: reserve capacity: AC50,> 100 µM
same,AhR Translocation: MEC,"HepG2 cells [1]; human, 24 h",51.2 µM
same,Apoptosis & necrosis: caspase 3/7: MEC,"HepG2 cells [1]; human, 24 h",49.8 µM
same,Apoptosis & necrosis: cell cycle arrest: MEC,"HepG2 cells [1]; human, 24 h",35.8 µM
same,"Cell stress LOEC, ↓ in mitochondrial membrane potential","HepG2 cells [1]; human, 24 h",11.6 µM
same,Cellular ATP: MEC,"HepG2 cells [1]; human, 24 h",31.5 µM
same,DNA damage: Phospho-p53: MEC,"HepG2 cells [1]; human, 24 h",22.8 µM
same,DNA damage: p-H2AX: MEC,"HepG2 cells [1]; human, 24 h",13.4 µM
same,ER stress panel 1: ER integrity: MEC,"HepG2 cells [1]; human, 24 h",23.3 µM
same,ER stress panel 1: XBP1: MEC,"HepG2 cells [1]; human, 24 h",40.9 µM
same,ER stress panel 2: CHOP: MEC,"HepG2 cells [1]; human, 24 h",69.0 µM
same,Inflammation & pH: HIF1α: MEC,"HepG2 cells [1]; human, 24 h",44.8 µM
same,Inflammation & pH: ICAM-1: MEC,"HepG2 cells [1]; human, 24 h",34.4 µM
same,Inflammation & pH: intracellular pH: MEC,"HepG2 cells [1]; human, 24 h",50.6 µM
same,Metal stress: MTF1: MEC,"HepG2 cells [1]; human, 24 h",25.5 µM
same,Mitochondrial mass: MEC,"HepG2 cells [1]; human, 24 h",15.0 µM
same,Mitochondrial membrane potential: MEC,"HepG2 cells [1]; human, 24 h",11.6 µM
same,Nuclear size: MEC,"HepG2 cells [1]; human, 24 h",25.2 µM
same,Osmotic & heat shock: NFAT: MEC,"HepG2 cells [1]; human, 24 h",49.4 µM
same,Oxidative stress: HMOX1: MEC,"HepG2 cells [1]; human, 24 h",29.9 µM
same,Oxidative stress: NRF2: MEC,"HepG2 cells [1]; human, 24 h",29.9 µM
same,Seahorse assay: Extracellular acidification rate (ECAR): MEC,"HepG2 cells [1]; human, 24 h",27.7 µM
same,Seahorse assay: oxygen consumption rate (OCR): MEC,"HepG2 cells [1]; human, 24 h",41.5 µM
same,Seahorse assay: reserve capacity: MEC,"HepG2 cells [1]; human, 24 h",34.8 µM
same,inhibition at 10 µM,MAO-A,86%
same,IC50,5-HT2B (h),0.682 µM
same,inhibition at 10 µM,5-HT2B (h); read-out: 5-HT2B (h) (agonist RL): % inhibition @10 µM,91.9%
same,IC50,Adenosine A1 (h),9.12 µM
same,inhibition at 10 µM,Adenosine A1 (h); read-out: Adenosine A1 (h) (antagonist RL): % inhibition @10 µM,53.5%
same,"Lowest median BMD, 3 genes passing all filters",MCF-7 cells; pathway differs per chemical,0.0065 µM
same,"Lowest median BMD, >5 genes passing all filters",MCF-7 cells; pathway differs per chemical,0.051 µM
same,BMD relating to estrogen effects,MCF-7 cells; pathway named in the cell,60.1 - estrogen 2-hydroxylase activity ↓ µM
same,"Lowest median BMD, >5 genes passing all filters","HepG2 cells [2]; HepG2, 24 h, pathway differs per chemical",15.7 µM
same,BMD relating to estrogen effects,"HepG2 cells [2]; HepG2, 24 h, pathway named in the cell",53.8 - Estrogen-dependent gene expression ↓ µM
same,"BMD/NOEC, gene pathway deregulation",HepG2 cells [2]; HepG2 cells,15.7 µM
same,Amount of parent chemical entering the systemic circulation,[3],7.2 % of the applied dose
same,"Thyroid pathway: Regulation of transcription factor activity (TSHR), Call",TSHR,Neg
same,"Thyroid pathway: Monooxygenase (Not AOP), Call",Monooxygenase,Pos
same,AC50,"Monooxygenase; read-out: Thyroid pathway: Monooxygenase (Not AOP), AC50",9.44 µM
